Measurements reported in patent US20250009819A1, “NOVEL PROBIOTICS AND USE THEREOF” (PBLBIOLAB CO., LTD., priority 2021, published 2025).

Key:
[1] = tested on: TNF-α; assay: TNF-α expression in LPS-treated macrophages (ELISA); type: cell-based, C57BL/6 mice; settings: macrophages treated with lactic acid bacteria and LPS for 24 hours
Method: (§1) C57BL/6 mice (male, 6 weeks old, 20-23 g) were subjected to an intraperitoneal injection of 2 ml of sterile 4% thioglycolate solution, and after 96 hours, the mice were anesthetized and injected with 8 ml of RPMI 1640 medium through the peritoneal cavity. Then, after 5-10 minutes, the RPMI medium (macrophages) in the mouse peritoneal cavity was extracted, centrifuged at 1000 g for 10 minutes, and washed again with RPMI 1640 medium twice. Macrophages were seeded in 24-well plates at a count of 0.5×10^6 in each well, and treated with lactic acid bacteria and LPS, an inflammatory response-inducing substance, for 24 hours. TNF-α and IL-10 cytokine expression amount in the culture supernatant was then measured by ELISA Kit.

[2] = tested on: IL-10; assay: IL-10 expression in LPS-treated macrophages (ELISA); type: cell-based, C57BL/6 mice; settings: macrophages treated with lactic acid bacteria and LPS for 24 hours
Method: as §1

[3] = tested on: Clostridium difficile; assay: Clostridium difficile proliferation in gut microbiota (PCR); type: cell-based; settings: human feces culture; lactic acid bacteria 1×10^6 CFU/mL; anaerobic 24 hr
Method: Fresh human feces were suspended in anaerobic medium (GAM, Nissui Pharmaceutical Co., Ltd., Japan) and allowed to stand for 10 min. The supernatant was diluted with 10,000-fold anaerobic medium, 0.05 mL of the dilution was transplanted into 5 mL of freshly made anaerobic medium, and lactic acid bacteria (1×10^6 CFU/mL) were implanted and incubated anaerobically for 24 hr. This culture medium was divided into two, one was centrifuged (5000 rpm, 20 minutes), the precipitated DNA was isolated using the QIAamp DNA stool mini kit (Qiagen, Germany), and Clostridium difficile (primer: forward, 5′-[…]-3′ (SEQ ID NO: 4); reverse, 5′-[…]-3′ (SEQ ID NO: 5) was quantified by PCR. The reaction product was first treated at 95° C. for 30 seconds, followed by 42 cycles of 5 seconds at 95° C. and 30 seconds at 72° C. for analysis. In addition, one culture medium was sonicated, centrifuged, and filter-sterilized, and the amount of LPS in the supernatant was measured using an ELISA kit.

[4] = tested on: gut microbiota; assay: LPS production in gut microbiota (ELISA); type: cell-based; settings: human feces culture; lactic acid bacteria 1×10^6 CFU/mL; anaerobic 24 hr
Method: Fresh human feces were suspended in anaerobic medium (GAM, Nissui Pharmaceutical Co., Ltd., Japan) and allowed to stand for 10 min. The supernatant was diluted with 10,000-fold anaerobic medium, 0.05 mL of the dilution was transplanted into 5 mL of freshly made anaerobic medium, and lactic acid bacteria (1×10^6 CFU/mL) were implanted and incubated anaerobically for 24 hr.

[5] = Antioxidant activity (DPPH, in vitro); type: biochemical; settings: DPPH 0.2 mM; lactic acid bacteria suspension 1×10^8 CFU/ml; 37° C. 20 min
Method: DPPH (2,2-Diphenyl-1-picrylhydrazyl) was dissolved in ethanol to a concentration of 0.2 mM to prepare DPPH solution. Lactic acid bacteria suspension (1×10^8 CFU/ml) or vitamin C solution (1 g/ml) was added to 0.1 ml of the above DPPH solution and incubated at 37° C. for 20 min. The culture was centrifuged at 3000 rpm for 5 min to obtain a supernatant. The absorbance of the supernatant was then measured at 517 nm and the antioxidant activity of the lactic acid bacteria was calculated.

[6] = tested on: BDNF; assay: BDNF expression in SH-SY5Y cells; type: cell-based; settings: LPS 200 ng/ml; lactic acid bacteria 1×10^4 CFU/ml; 24 h
Method: SH-SY5Y cells obtained from the Korean Cell Line Bank were cultured in DMEM medium supplemented with 10% FBS and 1% antibiotics, and dispensed at 2×10^6 cells per well in a 12-well plate. Then, LPS (200 ng/ml) was added to each well along with lactic acid bacteria (1×10^4 CFU/ml) and incubated for 24 h. The cells and supernatants were collected, sonicated and centrifuged, and the amount of BDNF in the supernatant was measured by ELISA kit.

[7] = tested on: Neuropeptide Y (NPY); assay: Neuropeptide Y (NPY) expression in PC12 phaeochromocytoma cells; type: cell-based; settings: LPS 200 ng/ml; lactic acid bacteria 1×10^4 CFU/ml; 24 hr
Method: PC12 cells obtained from the Korean Cell Line Bank were cultured in DMEM medium supplemented with 10% FBS and 1% antibiotics, and dispensed at 1×10^6 cells per well in a 12-well plate. Then, LPS (200 ng/ml) was added to each well along with lactic acid bacteria (1×10^4 CFU/ml) and incubated for 24 hr. The cells and supernatants were collected, sonicated and centrifuged, and the amount of NPY in the supernatant was measured by ELISA kit.

## Lactobacillus gasseri NK185
[1]
  Macrophage Inhibition of TNF-α expression: + (weakly (+; >20-60%))
[2]
  Macrophage Induction of IL-10 expression: + (weakly (+; >20-60%))
[3]
  Gut microbiota Inhibition of difficile bacteria proliferation: + (weakly (+; >20-60%))
[4]
  Gut microbiota Inhibition of LPS production: − (not or less than 20% (−; <20%))
[5]
  Antioxidant activity: ++ (strongly (++; >60-90%))
[6]
  SHSY5Y cell Induction of BDNF expression: − (not or less than 20% (−; <20%))
[7]
  PC12 cell Induction of NPY expression: + (weakly (+; >20-60%))

## Lactobacillus casei NK194
[1]
  Macrophage Inhibition of TNF-α expression: − (not or less than 20% (−; <20%))
[2]
  Macrophage Induction of IL-10 expression: + (weakly (+; >20-60%))
[3]
  Gut microbiota Inhibition of difficile bacteria proliferation: + (weakly (+; >20-60%))
[4]
  Gut microbiota Inhibition of LPS production: + (weakly (+; >20-60%))
[5]
  Antioxidant activity: ++ (strongly (++; >60-90%))
[6]
  SHSY5Y cell Induction of BDNF expression: + (weakly (+; >20-60%))
[7]
  PC12 cell Induction of NPY expression: + (weakly (+; >20-60%))

## Bifidobacterium bifidum NK223
[1]
  Macrophage Inhibition of TNF-α expression: + (weakly (+; >20-60%))
[2]
  Macrophage Induction of IL-10 expression: + (weakly (+; >20-60%))
[3]
  Gut microbiota Inhibition of difficile bacteria proliferation: − (not or less than 20% (−; <20%))
[4]
  Gut microbiota Inhibition of LPS production: − (not or less than 20% (−; <20%))
[5]
  Antioxidant activity: + (weakly (+; >20-60%))
[6]
  SHSY5Y cell Induction of BDNF expression: + (weakly (+; >20-60%))
[7]
  PC12 cell Induction of NPY expression: − (not or less than 20% (−; <20%))

## Bifidobacterium adolescentis NK221
[1]
  Macrophage Inhibition of TNF-α expression: − (not or less than 20% (−; <20%))
[2]
  Macrophage Induction of IL-10 expression: − (not or less than 20% (−; <20%))
[3]
  Gut microbiota Inhibition of difficile bacteria proliferation: + (weakly (+; >20-60%))
[4]
  Gut microbiota Inhibition of LPS production: + (weakly (+; >20-60%))
[5]
  Antioxidant activity: + (weakly (+; >20-60%))
[6]
  SHSY5Y cell Induction of BDNF expression: − (not or less than 20% (−; <20%))
[7]
  PC12 cell Induction of NPY expression: + (weakly (+; >20-60%))

## Lactobacillus rhamnosus NK211
[1]
  Macrophage Inhibition of TNF-α expression: + (weakly (+; >20-60%))
[2]
  Macrophage Induction of IL-10 expression: + (weakly (+; >20-60%))
[3]
  Gut microbiota Inhibition of difficile bacteria proliferation: + (weakly (+; >20-60%))
[4]
  Gut microbiota Inhibition of LPS production: − (not or less than 20% (−; <20%))
[5]
  Antioxidant activity: + (weakly (+; >20-60%))
[6]
  SHSY5Y cell Induction of BDNF expression: − (not or less than 20% (−; <20%))
[7]
  PC12 cell Induction of NPY expression: − (not or less than 20% (−; <20%))

## Lactobacillus plantarum NK181
[1]
  Macrophage Inhibition of TNF-α expression: + (weakly (+; >20-60%))
[2]
  Macrophage Induction of IL-10 expression: − (not or less than 20% (−; <20%))
[3]
  Gut microbiota Inhibition of difficile bacteria proliferation: + (weakly (+; >20-60%))
[4]
  Gut microbiota Inhibition of LPS production: − (not or less than 20% (−; <20%))
[5]
  Antioxidant activity: + (weakly (+; >20-60%))
[6]
  SHSY5Y cell Induction of BDNF expression: − (not or less than 20% (−; <20%))
[7]
  PC12 cell Induction of NPY expression: + (weakly (+; >20-60%))

## Bifidobacterium catenulatum NK225
[1]
  Macrophage Inhibition of TNF-α expression: + (weakly (+; >20-60%))
[2]
  Macrophage Induction of IL-10 expression: + (weakly (+; >20-60%))
[3]
  Gut microbiota Inhibition of difficile bacteria proliferation: + (weakly (+; >20-60%))
[4]
  Gut microbiota Inhibition of LPS production: − (not or less than 20% (−; <20%))
[5]
  Antioxidant activity: + (weakly (+; >20-60%))
[6]
  SHSY5Y cell Induction of BDNF expression: − (not or less than 20% (−; <20%))
[7]
  PC12 cell Induction of NPY expression: − (not or less than 20% (−; <20%))

## Lactobacillus casei NK195
[1]
  Macrophage Inhibition of TNF-α expression: + (weakly (+; >20-60%))
[2]
  Macrophage Induction of IL-10 expression: + (weakly (+; >20-60%))
[3]
  Gut microbiota Inhibition of difficile bacteria proliferation: + (weakly (+; >20-60%))
[4]
  Gut microbiota Inhibition of LPS production: − (not or less than 20% (−; <20%))
[5]
  Antioxidant activity: + (weakly (+; >20-60%))
[6]
  SHSY5Y cell Induction of BDNF expression: − (not or less than 20% (−; <20%))
[7]
  PC12 cell Induction of NPY expression: − (not or less than 20% (−; <20%))

## Lactobacillus sakei NK197
[1]
  Macrophage Inhibition of TNF-α expression: + (weakly (+; >20-60%))
[2]
  Macrophage Induction of IL-10 expression: + (weakly (+; >20-60%))
[3]
  Gut microbiota Inhibition of difficile bacteria proliferation: + (weakly (+; >20-60%))
[4]
  Gut microbiota Inhibition of LPS production: + (weakly (+; >20-60%))
[5]
  Antioxidant activity: ++ (strongly (++; >60-90%))
[6]
  SHSY5Y cell Induction of BDNF expression: − (not or less than 20% (−; <20%))
[7]
  PC12 cell Induction of NPY expression: + (weakly (+; >20-60%))

## Lactobacillus paracasei NK189
[1]
  Macrophage Inhibition of TNF-α expression: + (weakly (+; >20-60%))
[2]
  Macrophage Induction of IL-10 expression: − (not or less than 20% (−; <20%))
[3]
  Gut microbiota Inhibition of difficile bacteria proliferation: + (weakly (+; >20-60%))
[4]
  Gut microbiota Inhibition of LPS production: + (weakly (+; >20-60%))
[5]
  Antioxidant activity: + (weakly (+; >20-60%))
[6]
  SHSY5Y cell Induction of BDNF expression: − (not or less than 20% (−; <20%))
[7]
  PC12 cell Induction of NPY expression: − (not or less than 20% (−; <20%))

## Lactobacillus johnsonii NK202
[1]
  Macrophage Inhibition of TNF-α expression: + (weakly (+; >20-60%))
[2]
  Macrophage Induction of IL-10 expression: + (weakly (+; >20-60%))
[3]
  Gut microbiota Inhibition of difficile bacteria proliferation: + (weakly (+; >20-60%))
[4]
  Gut microbiota Inhibition of LPS production: + (weakly (+; >20-60%))
[5]
  Antioxidant activity: + (weakly (+; >20-60%))
[6]
  SHSY5Y cell Induction of BDNF expression: + (weakly (+; >20-60%))
[7]
  PC12 cell Induction of NPY expression: + (weakly (+; >20-60%))

## Lactobacillus casei NK193
[1]
  Macrophage Inhibition of TNF-α expression: + (weakly (+; >20-60%))
[2]
  Macrophage Induction of IL-10 expression: + (weakly (+; >20-60%))
[3]
  Gut microbiota Inhibition of difficile bacteria proliferation: − (not or less than 20% (−; <20%))
[4]
  Gut microbiota Inhibition of LPS production: + (weakly (+; >20-60%))
[5]
  Antioxidant activity: + (weakly (+; >20-60%))
[6]
  SHSY5Y cell Induction of BDNF expression: + (weakly (+; >20-60%))
[7]
  PC12 cell Induction of NPY expression: − (not or less than 20% (−; <20%))
